For series [1], the system named is Trx/TrxR system in human cancer cells. As to conditions: cited from earlier work.
The target of series [2] is T1, bovine TrxR (Bos taurus, UniProt O62768).
T1 construct: purchased American Diagnostica
T1 sequence (O62768 1-499): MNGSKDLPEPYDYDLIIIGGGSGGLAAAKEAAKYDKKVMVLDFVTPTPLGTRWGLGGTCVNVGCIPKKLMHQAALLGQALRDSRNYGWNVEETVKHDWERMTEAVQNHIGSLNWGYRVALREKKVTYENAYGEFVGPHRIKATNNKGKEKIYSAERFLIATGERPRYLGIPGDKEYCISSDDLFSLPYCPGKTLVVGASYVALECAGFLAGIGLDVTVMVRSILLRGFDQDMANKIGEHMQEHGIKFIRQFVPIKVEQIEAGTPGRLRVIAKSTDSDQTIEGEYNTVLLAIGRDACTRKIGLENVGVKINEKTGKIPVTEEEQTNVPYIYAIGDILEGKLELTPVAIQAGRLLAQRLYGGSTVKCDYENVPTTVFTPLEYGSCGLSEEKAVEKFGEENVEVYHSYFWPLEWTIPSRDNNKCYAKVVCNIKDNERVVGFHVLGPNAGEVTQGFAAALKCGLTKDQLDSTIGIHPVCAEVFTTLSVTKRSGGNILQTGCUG
Briefly: TrxR NADPH oxidation assay without Trx (Reaction A). In kind it is biochemical. The settings on record: TrxR alone + NADPH, no Trx; disulfide 0.5 mM.

For series [3], the target named is T2, TrxR/Trx system (Homo sapiens, UniProt P10599).
T2 construct: purchased Sigma (Trx); American Diagnostica (bovine TrxR)
T2 sequence (P10599 1-105): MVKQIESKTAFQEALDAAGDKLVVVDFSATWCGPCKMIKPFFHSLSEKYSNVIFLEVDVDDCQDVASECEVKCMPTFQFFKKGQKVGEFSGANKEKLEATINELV
Briefly: TrxR/Trx NADPH oxidation assay. The class given is biochemical. As to conditions: increasing concentrations of test substance. An excerpt: (Note: error bars are small and may be obscured by the symbols). […] (Note: error bars were omitted but assays were run in quadruplicate with typical errors of 5-8% between individual replicates). […] Panel D: Initial velocity reaction rates corresponding to progress curves shown in Panel C. With time, Trx-mesna and Trx-GSH are converted back to apo-Trx by Trx reductase (see also, FIG. 69, Panel E).

For series [4], the system named is mammalian thioredoxin reductase (TrxR). The settings on record: cited from earlier work.
The conditions of series [5]: read-out: Cmax for mesna; 41 g/m^2 Tavocept; cited from earlier work.
The test system of series [6] is bovine brain microtubule protein (α-/β-tubulin). Briefly: Microtubule protein polymerization assay (OD350). The class given is biochemical. As to conditions: for effect on GTP promoted microtubule protein polymerization: mesna, even at 10 mM.
In series [7] the test system is some cell lines. Briefly: In vitro cytotoxicity of mesna. The settings on record: ≦400 μM; unpublished data.
Series [8] concerns non-small cell lung cancer. The settings on record: patients greater than or equal to 65 years, carboplatin and paclitaxel chemotherapy; cited from earlier work.
Series [9] deals with insulin.
Series [10] has as its target Recombinant human thioredoxin (Trx) (human) (UniProt P10599).
Series [11] has as its target T3, human Trx with rat liver TrxR (Homo sapiens, UniProt P10599).
T3 sequence (P10599 1-105): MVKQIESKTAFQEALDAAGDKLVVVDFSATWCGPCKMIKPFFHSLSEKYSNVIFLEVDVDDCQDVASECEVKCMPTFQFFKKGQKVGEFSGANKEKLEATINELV
Briefly: TrxR/Trx insulin disulfide reduction assay (NADPH oxidation 340 nm, insulin B chain precipitation 650 nm). The class given is biochemical. The settings on record: modified Trx purified from free Tavocept or glutathione disulfide.

Entries after “also recorded” stand apart in the source; their conditions may differ.

For `CCOC(=O)NC1=C(N2CC2)C(=O)C(NC(=O)OCC)=C(N2CC2)C1=O` [Diaziquone], the “Inhibition of Trx/TrxR system and cellular ribonucleotide reductase activity” value in series [1] is “inhibit the Trx/TrxR system resulting in a concentration-dependent inhibition of cellular ribonucleotide reductase activity”. On to `NC(CSSCCS(=O)(=O)O)C(=O)O` (stereo not shown) [MSSC, mesna-cysteine disulfide], for which the “NADPH Oxidation, Reaction A” value in series [2] was 0.2 ± 0.03 nmol/min/mL. The “NADPH oxidation by TrxR and Trx” value in series [3] is listed as “increases”. On the same counts, the results for `N[C@@H](CCC(=O)N[C@@H](CSSCCS(=O)(=O)O)C(=O)NCC(=O)O)C(=O)O` [MSSG, mesna-glutathione disulfide] are 0.3 ± 0.02 nmol/min/mL and “increases”. For `NC(CCSSCCS(=O)(=O)O)C(=O)O` (stereo not shown) [MSSH, mesna-homocysteine disulfide], the “NADPH Oxidation, Reaction A” value in series [2] was 0.0 ± 0.03 nmol/min/mL. Also, the “NADPH oxidation by TrxR and Trx” value in [3] is listed as “increases”. On to `COc1cccc2c1C(=O)c1c(O)c3c(c(O)c1C2=O)C[C@@](O)(C(=O)CO)C[C@@H]3O[C@H]1C[C@H](N)[C@H](O)[C@H](C)O1` [doxorubicin], for which the “Inhibition of Trx/TrxR system and cellular ribonucleotide reductase activity” value in [1] is “inhibit the Trx/TrxR system resulting in a concentration-dependent inhibition of cellular ribonucleotide reductase activity”. Besides, the “Inhibition of TrxR” value in [4] is “not inhibitors of TrxR”. In the case of `O=S(=O)([O-])CCS.[Na+]` [mesna, 2-mercapto ethane sulfonate], the Cmax (usually the peak of the concentration-time curve) in [5] was about 323 µM. Further, the “effect alone on microtubule protein polymerization” value in [6] (in the absence of monoaquocisplatin) is listed as “neither mesna nor cysteine alone (in the absence of monoaquocisplatin) had any effect; also recorded: no detectable effect”. Moreover, the “effect on paclitaxel-induced hyperpolymerization of MTP” value in series [6] (mesna alone) is listed as “no detectable effect”. In addition, the results for the “effect on GTP promoted microtubule protein polymerization” value in series [6] and in series [6] (listed as Mesna) were “did not affect microtubule protein polymerization in an appreciable manner” and “does not affect”, respectively. The “protection against monoaquocisplatin-induced loss of microtubule protein polymerization” value in series [6] (preincubated with monoaquocisplatin (36 μM), mesna or cysteine 200 μM) is on record as “prevented the monoaquocisplatin-induced loss; also recorded: able to protect”. The Cytotoxicity in vitro entry in [7] is on record as “can be cytotoxic to some cell lines”. Take Avastin: Avastin (bevacizumab): the Survival advantage result in series [8] is on record as “did not confer a survival advantage”. For “Recombinant human thioredoxin (Trx) (from UniProt P10599) (enzyme)”, the NADPH Oxidation (nmoles/min/mL) (nmoles/min/mL) in series [9] is 18.

Take “Tavocept-modified Prx (Prx-mesna) (from UniProt Q06830) (enzyme)”: the rate of NADPH oxidation at 340 nm in the Prx assay (% reduction in rate) in [10] worked out at 43. In the case of “bovine Trx reductase (TrxR) (from UniProt O62768) (enzyme)”, in series [9], the NADPH Oxidation (nmoles/min/mL) (nmoles/min/mL) came to 0.3.

B1: Trx-mesna: Trx covalently modified by a Tavocept-derived mesna moiety (protein)
chain: MVKQIESKTAFQEALDAAGDKLVVVDFSATWCGPCKMIKPFFHSLSEKYSNVIFLEVDVDDCQDVASECEVKCMPTFQFFKKGQKVGEFSGANKEKLEATINELV
modifications: Tavocept-derived mesna mixed disulfide on Cys73 and on Cys62 or Cys69 (mass spectroscopy)
notes: Trx covalently modified by a Tavocept-derived mesna moiety
As to B1, the “Effect on initial velocity of insulin reduction relative to apo-Trx” value in [11] was “inhibitory effect”.

B2: Trx-GSH: Trx modified by glutathione after incubation with glutathione disulfide (protein)
chain: MVKQIESKTAFQEALDAAGDKLVVVDFSATWCGPCKMIKPFFHSLSEKYSNVIFLEVDVDDCQDVASECEVKCMPTFQFFKKGQKVGEFSGANKEKLEATINELV
modifications: glutathionylated (cysteine-73 in the control reactions with glutathione)
notes: Trx modified by glutathione after incubation with glutathione disulfide
Consider B2, for which the “Effect on initial velocity of insulin reduction relative to apo-Trx” value in series [11] is recorded as “a clear effect on initial velocity”.

The record behind these values is patent publication US20170007561A1, “CONTEMPORANEOUS, HETEROGENEOUSLY-ORIENTED, MULTI-TARGETED THERAPEUTIC MODIFICATION AND/OR MODULATION OF DISEASE BY ADMINISTRATION OF SULFUR-CONTAINING, AMINO ACID-SPECIFIC SMALL MOLECULES” (BioNumerik Pharmaceuticals, Inc., priority 2014, published 2017).
